From ChEMBL document CHEMBL1201862, “PubChem BioAssay data set” (2004)
Activity calls are given as the source filed them.

What was measured:
[1] = intracellular Trypanosoma cruzi inhibitors in host cells – cell-based, plate reader, cherry-pick samples, set 3, dose response (AID 651818); assay type: functional;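 further: compounds incubated with infected cells for about four days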
Fatty acid synthase [2] = target: T1, Fatty acid synthase (Homo sapiens, UniProt P49327); test: inhibition of human FAS-TE enzyme activity – biochemical, endpoint fluorescence intensity, uHTS hits, dose response (AID 624327); assay type: functional;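 further: fluorescence from hydrolysis of an O-methyl fluorescein acyl ester substrate by the enzyme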
Fatty acid synthase [3] = target: T1, Fatty acid synthase; test: inhibition of human FAS-TE enzyme activity – biochemical, kinetic fluorescence intensity, dose response (AID 624326); assay type: functional;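 further: rate of fluorescence rise from hydrolysis of a fluorogenic O-methyl fluorescein ester substrate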
[4] = NIH-3T3 fibroblast cytotoxicity, dose response, cytotoxicity control, cell-based, fluorescence, Alamar Blue, secondary assay (AID 2327); assay type: functional;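 further: NIH-3T3 mouse fibroblasts cultured with fluconazole at 8 µg/mL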
[5] = fluconazole-exposed Candida albicans growth modulators – fluorescence, retest, confirmation (AID 2467); assay type: functional, cell-based
INS1 = test: INS-1E survival protection against cytokine death – cell-based, luminescence, retest, dose response (AID 449756); assay type: functional; conditions: Rattus norvegicus;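 further: cell death triggered by IL-1 beta plus TNF-alpha plus IFN-gamma mixture; protective hits raise ATP signal compared with cytokine alone wells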
[6] = target: T2, RNA-binding protein pos-1 (Caenorhabditis elegans, UniProt G5EF15); test: disruptors of C. elegans POS-1 RNA interaction – biochemical, fluorescence polarization, dose response (AID 1964);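 further: purified POS-1 fused to maltose binding protein made in E. coli; potency of compounds blocking POS-1 binding to fluorescent RNA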
T2 sequence (G5EF15 whole entry): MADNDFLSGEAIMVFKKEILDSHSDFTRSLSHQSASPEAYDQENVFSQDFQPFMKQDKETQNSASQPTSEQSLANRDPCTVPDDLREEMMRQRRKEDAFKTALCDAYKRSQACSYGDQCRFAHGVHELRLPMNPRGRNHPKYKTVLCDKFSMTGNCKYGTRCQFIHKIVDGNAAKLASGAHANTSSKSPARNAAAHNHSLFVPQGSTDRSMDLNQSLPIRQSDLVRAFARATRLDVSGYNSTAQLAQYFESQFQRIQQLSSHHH

[7] = target: T3, Zinc finger protein mex-5 (Caenorhabditis elegans, UniProt Q9XUB2); test: potency of MEX-5 RNA-binding blockers – biochemical, C. elegans, fluorescence polarization, dose response (AID 1960)
T3 sequence (Q9XUB2 whole entry): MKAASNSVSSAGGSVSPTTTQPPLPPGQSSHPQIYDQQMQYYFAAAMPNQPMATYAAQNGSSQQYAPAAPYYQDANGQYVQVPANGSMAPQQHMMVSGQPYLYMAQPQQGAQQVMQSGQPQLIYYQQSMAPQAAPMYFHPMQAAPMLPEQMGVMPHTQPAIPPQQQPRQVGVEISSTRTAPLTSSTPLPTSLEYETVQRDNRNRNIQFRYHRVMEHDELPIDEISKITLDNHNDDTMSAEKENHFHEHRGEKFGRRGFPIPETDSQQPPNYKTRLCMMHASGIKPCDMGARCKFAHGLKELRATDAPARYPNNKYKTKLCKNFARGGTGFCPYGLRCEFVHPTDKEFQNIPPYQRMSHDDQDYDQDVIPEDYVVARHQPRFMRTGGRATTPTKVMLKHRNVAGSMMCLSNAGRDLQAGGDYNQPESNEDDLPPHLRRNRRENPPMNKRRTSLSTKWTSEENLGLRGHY

Leucine aminopeptidase = target: T4, Leucine aminopeptidase (Plasmodium falciparum 3D7, UniProt Q8IL11); test: P. falciparum M17LAP inhibitors, primary screen, biochemical, fluorogenic H-Leu-NHMec substrate, 1536-well (AID 1619); assay type: functional
T4 sequence (Q8IL11 whole entry): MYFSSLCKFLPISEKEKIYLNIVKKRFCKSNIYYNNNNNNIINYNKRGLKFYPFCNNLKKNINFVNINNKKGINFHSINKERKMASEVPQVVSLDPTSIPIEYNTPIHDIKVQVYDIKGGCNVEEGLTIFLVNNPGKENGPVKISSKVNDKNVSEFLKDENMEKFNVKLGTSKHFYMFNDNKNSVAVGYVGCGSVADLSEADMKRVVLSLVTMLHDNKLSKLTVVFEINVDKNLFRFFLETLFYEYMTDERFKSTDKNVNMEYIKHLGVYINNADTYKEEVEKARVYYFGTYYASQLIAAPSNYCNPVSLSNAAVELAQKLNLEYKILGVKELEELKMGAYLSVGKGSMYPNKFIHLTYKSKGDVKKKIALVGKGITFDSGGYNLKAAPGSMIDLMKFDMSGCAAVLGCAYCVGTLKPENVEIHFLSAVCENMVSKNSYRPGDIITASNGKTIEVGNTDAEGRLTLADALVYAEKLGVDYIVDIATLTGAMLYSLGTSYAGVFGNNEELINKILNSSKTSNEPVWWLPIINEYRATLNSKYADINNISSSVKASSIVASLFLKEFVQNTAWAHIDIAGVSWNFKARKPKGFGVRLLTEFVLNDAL

[8] = reduction of Shn3 3'UTR-driven luciferase in osteoblasts – cell-based, Clone20 osteoblasts, firefly luciferase, cherry-picked, dose response (AID 624132); assay type: functional;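 further: firefly luciferase luminescence from reporter carrying the Shn3 3'UTR in osteoblasts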
[9] = non-specific 3'UTR reporter inhibition in Clone20-Shn3RL – cell-based, Renilla luciferase, cherry-picked, counter-screen for Shn3 inhibitor project, dose response (AID 624133); assay type: functional
[10] = P. falciparum Dd2 growth inhibitors, dose response, SYBR Green, cherry-picked samples (AID 1159567); assay type: functional, cell-based
BJ [11] = test: BJ-TERT fibroblast viability loss – cell-based, RAS-independent, luminescence, dose response (AID 1933); assay type: functional; conditions: Homo sapiens
[12] = target: Luciferin 4-monooxygenase (Photinus pyralis, UniProt P08659); test: inhibition of purified Photinus pyralis luciferase – biochemical, luminescence, dose response (AID 1891)
[13] = Luminescence Cell-Based Dose Confirmation HTS to Identify Inhibitors of Platelet Dense Granule Release. [Related pubchem assays: 1663 (Primary HTS), 1678 (Summary of Project)]; assay type: functional
BJ [14] = test: BJ-TERT-LT-ST fibroblast viability loss – cell-based, RAS-independent, luminescence, dose response (AID 1935); assay type: functional; conditions: Homo sapiens;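 further: BJ fibroblasts immortalized with TERT plus LT and ST oncogenes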
[15] = DRD fibroblast viability loss – cell-based, non-viral oncogenic, luminescence, dose response (AID 1934); assay type: functional; conditions: Homo sapiens
[16] = target: FAD-linked sulfhydryl oxidase ALR (Homo sapiens, UniProt P55789); test: ALR-catalysed DTT oxidation blockers – biochemical, H2O2 detection, luminescence, cherry-pick, dose response (AID 493248)
[17] = target: T5, Corticotropin-releasing factor receptor 2/Corticotropin-releasing factor-binding protein (Homo sapiens, UniProt P24387+Q13324); test: activators of CRF receptor 2 with binding protein – uHTS hits, confirmation (AID 602473); assay type: functional; conditions: read-out: EC50_Mean
T5 sequence (Q13324 whole entry): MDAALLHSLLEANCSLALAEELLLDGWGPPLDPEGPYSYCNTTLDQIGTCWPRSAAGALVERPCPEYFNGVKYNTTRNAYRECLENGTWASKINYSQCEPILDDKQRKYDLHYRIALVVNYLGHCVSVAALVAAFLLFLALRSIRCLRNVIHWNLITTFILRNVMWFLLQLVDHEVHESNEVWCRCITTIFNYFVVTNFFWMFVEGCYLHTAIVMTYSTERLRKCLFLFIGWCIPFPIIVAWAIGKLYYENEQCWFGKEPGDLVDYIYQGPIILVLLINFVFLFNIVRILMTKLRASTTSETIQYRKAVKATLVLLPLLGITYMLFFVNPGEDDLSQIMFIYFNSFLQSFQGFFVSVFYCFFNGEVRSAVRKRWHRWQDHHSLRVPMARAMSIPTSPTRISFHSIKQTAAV
T5 sequence (P24387 whole entry): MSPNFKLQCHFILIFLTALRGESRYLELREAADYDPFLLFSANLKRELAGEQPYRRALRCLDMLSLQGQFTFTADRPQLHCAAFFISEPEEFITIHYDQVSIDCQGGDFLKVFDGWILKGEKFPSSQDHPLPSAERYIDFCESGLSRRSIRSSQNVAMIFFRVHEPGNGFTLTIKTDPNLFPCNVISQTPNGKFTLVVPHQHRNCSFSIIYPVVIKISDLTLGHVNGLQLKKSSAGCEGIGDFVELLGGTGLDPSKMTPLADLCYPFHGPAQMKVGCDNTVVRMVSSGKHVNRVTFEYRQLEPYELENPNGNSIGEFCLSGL

[18] = target: T6, Carboxy-terminal domain RNA polymerase II polypeptide A small phosphatase 1 (Homo sapiens, UniProt Q9GZU7); test: CTDSP1 inhibitors, concentration-response, biochemical, absorbance readout, ultra-high-throughput screen actives (AID 540297); assay type: functional
T6 sequence (Q9GZU7 whole entry): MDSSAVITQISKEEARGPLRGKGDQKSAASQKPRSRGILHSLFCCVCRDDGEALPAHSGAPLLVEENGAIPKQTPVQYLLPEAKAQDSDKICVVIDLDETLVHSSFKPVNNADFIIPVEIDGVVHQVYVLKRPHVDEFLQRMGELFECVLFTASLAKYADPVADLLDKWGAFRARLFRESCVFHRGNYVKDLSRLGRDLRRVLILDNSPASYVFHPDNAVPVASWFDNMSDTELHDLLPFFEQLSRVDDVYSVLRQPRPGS

T1 sequence (P49327 whole entry): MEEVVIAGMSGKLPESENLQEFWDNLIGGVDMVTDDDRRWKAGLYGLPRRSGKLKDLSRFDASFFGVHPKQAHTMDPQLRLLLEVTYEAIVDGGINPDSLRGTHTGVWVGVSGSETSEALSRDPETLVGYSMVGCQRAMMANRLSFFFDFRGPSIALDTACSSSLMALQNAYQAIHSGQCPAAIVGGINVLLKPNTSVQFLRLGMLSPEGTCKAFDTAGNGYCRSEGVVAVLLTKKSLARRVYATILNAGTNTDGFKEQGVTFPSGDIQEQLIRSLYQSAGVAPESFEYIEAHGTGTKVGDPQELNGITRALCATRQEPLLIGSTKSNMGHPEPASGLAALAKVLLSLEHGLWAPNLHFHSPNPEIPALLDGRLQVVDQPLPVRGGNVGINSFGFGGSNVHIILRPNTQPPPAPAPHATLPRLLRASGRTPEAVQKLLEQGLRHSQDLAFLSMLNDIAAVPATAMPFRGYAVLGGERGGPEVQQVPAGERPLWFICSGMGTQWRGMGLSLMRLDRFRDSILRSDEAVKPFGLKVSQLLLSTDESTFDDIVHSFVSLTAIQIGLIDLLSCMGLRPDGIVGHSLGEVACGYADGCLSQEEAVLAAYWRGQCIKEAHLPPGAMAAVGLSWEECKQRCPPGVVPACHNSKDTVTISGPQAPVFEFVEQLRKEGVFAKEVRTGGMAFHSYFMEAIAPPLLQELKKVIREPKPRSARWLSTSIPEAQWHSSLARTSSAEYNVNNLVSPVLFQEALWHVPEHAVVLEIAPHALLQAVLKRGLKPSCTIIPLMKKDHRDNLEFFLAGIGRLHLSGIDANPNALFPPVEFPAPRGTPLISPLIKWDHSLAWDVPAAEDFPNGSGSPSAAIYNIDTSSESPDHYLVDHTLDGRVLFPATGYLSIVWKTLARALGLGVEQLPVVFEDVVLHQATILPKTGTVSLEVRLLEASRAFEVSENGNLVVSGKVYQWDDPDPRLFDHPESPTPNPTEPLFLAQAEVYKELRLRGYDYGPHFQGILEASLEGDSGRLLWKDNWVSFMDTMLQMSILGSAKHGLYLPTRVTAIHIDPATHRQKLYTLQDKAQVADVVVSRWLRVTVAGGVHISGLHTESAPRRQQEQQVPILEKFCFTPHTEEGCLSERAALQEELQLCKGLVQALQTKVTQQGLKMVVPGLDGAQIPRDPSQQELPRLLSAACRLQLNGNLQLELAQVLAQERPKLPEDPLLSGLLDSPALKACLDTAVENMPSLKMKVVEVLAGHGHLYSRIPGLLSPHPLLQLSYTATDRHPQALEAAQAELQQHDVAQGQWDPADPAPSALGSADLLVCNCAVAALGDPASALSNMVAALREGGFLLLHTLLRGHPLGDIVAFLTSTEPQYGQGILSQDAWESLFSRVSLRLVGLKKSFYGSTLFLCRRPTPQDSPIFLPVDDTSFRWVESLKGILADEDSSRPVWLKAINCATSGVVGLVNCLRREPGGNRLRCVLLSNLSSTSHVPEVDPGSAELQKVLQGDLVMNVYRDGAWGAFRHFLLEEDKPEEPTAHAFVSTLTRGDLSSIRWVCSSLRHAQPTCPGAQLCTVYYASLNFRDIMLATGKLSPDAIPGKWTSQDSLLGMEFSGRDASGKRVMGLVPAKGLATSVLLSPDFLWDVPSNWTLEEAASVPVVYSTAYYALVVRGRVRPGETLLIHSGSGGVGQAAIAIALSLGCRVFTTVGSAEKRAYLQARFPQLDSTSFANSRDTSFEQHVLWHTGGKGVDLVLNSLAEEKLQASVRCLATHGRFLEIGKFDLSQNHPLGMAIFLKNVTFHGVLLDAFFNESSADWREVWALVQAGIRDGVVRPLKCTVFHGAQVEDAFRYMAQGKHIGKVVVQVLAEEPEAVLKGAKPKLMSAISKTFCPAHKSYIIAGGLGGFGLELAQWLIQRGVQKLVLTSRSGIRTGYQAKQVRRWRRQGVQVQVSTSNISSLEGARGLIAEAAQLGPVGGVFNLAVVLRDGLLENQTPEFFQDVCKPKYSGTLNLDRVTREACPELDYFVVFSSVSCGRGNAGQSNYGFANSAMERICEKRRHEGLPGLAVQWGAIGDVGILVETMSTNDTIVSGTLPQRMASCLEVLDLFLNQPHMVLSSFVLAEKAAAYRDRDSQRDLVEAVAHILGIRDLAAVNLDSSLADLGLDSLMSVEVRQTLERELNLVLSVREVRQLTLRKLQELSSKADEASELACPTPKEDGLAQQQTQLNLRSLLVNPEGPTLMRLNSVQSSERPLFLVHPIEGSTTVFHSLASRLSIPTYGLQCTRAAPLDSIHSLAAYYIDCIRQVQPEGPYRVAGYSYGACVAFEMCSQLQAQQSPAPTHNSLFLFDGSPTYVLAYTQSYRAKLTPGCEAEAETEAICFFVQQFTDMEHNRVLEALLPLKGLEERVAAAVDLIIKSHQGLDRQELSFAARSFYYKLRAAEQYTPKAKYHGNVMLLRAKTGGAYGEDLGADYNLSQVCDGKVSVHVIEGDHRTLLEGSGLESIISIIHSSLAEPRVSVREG
FAD-linked sulfhydryl oxidase ALR, sequence (P55789 whole entry): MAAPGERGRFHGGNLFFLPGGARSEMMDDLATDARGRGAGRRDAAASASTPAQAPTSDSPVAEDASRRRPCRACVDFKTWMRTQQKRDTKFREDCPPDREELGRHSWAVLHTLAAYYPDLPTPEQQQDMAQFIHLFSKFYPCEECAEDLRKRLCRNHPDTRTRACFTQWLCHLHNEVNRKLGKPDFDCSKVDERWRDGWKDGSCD
Luciferin 4-monooxygenase, sequence (P08659 whole entry): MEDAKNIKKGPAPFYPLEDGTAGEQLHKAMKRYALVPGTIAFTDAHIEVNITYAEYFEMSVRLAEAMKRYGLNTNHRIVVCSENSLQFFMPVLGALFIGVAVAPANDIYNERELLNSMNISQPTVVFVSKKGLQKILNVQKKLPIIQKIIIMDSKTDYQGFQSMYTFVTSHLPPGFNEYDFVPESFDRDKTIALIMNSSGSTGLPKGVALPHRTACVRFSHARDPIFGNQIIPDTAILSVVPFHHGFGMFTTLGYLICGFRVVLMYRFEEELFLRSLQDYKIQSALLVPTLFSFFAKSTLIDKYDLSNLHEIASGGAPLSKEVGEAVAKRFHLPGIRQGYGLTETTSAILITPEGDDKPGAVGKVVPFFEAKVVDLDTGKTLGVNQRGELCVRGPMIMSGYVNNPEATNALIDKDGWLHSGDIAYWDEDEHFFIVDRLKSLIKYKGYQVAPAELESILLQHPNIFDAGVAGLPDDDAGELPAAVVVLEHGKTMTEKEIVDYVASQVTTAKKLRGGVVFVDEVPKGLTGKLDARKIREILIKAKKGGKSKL

SMILES: C[C@H](CO)N1C[C@H](C)[C@@H](CN(C)Cc2ccc(C(=O)Nc3ccccc3N)cc2)Oc2c(NS(=O)(=O)c3ccc(Cl)cc3)cccc2C1=O
- AC50 [1]: 1.41 µM (active)

SMILES: COc1ccc(/C=C(\NC(=O)c2ccc([N+](=O)[O-])cc2)C(=O)N2CCOCC2)cc1
- IC50 (Fatty acid synthase [2]): 1.34 µM (active)
- IC50 (Fatty acid synthase [3]): 0.848 µM (active)

SMILES: C=CCN1C(=O)N/C(=C/c2ccc(N3CCOCC3)o2)C1=O
- EC50 [4]: 20 µM (active)
- EC50 [5]: 2.15 µM (active)
- AC50 (INS1): > 260 µM (inactive)

SMILES: C[C@H]1CN([C@@H](C)CO)C(=O)c2cccc(NC(=O)CCCCCC(=O)Nc3ccccc3N)c2O[C@@H]1CN(C)Cc1ccc(-c2ccccc2)cc1
- AC50 [1]: 1.71 µM (active)

SMILES: CN1CCc2nc(SCc3ccccc3Br)c(C#N)cc2C1
- IC50 (Fatty acid synthase [2]): 7.9 µM (active)
- IC50 (Fatty acid synthase [3]): 6.01 µM (active)

SMILES: Cc1nn(C)c(C)c1CN(C)C(=O)C1c2ccccc2Oc2ccccc21
- EC50 [6]: 15.5 µM (active)
- EC50 [7]: 9.86 µM (active)

SMILES: CCOC(=O)c1cccc(NC(=O)CSc2nc(N)cc(N)n2)c1
- IC50 (Leucine aminopeptidase): 13.8 µM (active)

SMILES: COc1ccc(OC)c(C(c2nnnn2Cc2ccccc2)N2CCN(C3CCCCC3)CC2)c1 (stereo not given)
- AC50 [8]: > 70 µM (inactive)
- AC50 [9]: 30.4 µM (active)

SMILES: CSc1nnc(-c2ccccc2/N=C/c2c(C)nn(-c3ccccc3)c2O)c(O)n1
- IC50 (Leucine aminopeptidase): 48.6 µM (active)

SMILES: COC(=O)c1cc(C(=O)Nc2nnc(CC(C)(C)C)s2)cc([N+](=O)[O-])c1
- IC50 (Fatty acid synthase [2]): 12.7 µM (active)
- IC50 (Fatty acid synthase [3]): 11.2 µM (active)

SMILES: C[C@H]1CN([C@@H](C)CO)C(=O)c2cc(NC(=O)Nc3cccc4ccccc34)ccc2O[C@@H]1CN(C)Cc1ccc(Oc2ccccc2)cc1
- AC50 [1]: 4.66 µM (active)
- AC50 [10]: 7.39 µM (active)

SMILES: CCc1cc2c(=O)oc(-c3ccccc3F)nc2s1
- IC50 (Fatty acid synthase [2]): 2.48 µM (active)
- IC50 (Fatty acid synthase [3]): 1.62 µM (active)

SMILES: O=C(c1cc2cc([N+](=O)[O-])ccc2oc1=O)N1CCN(C2CCCCC2)CC1
- IC50 (Fatty acid synthase [2]): 13.9 µM (active)
- IC50 (Fatty acid synthase [3]): 9.68 µM (active)

SMILES: Cc1ccc(N2C(=O)c3ccccc3C2O)nc1 (stereo not given)
- EC50 (BJ [11]): 8.32 µM (active)
- EC50 [12]: 6.56 µM (active)
- EC50 [13]: 1.74 µM (active)
- EC50 (BJ [14]): > 75 µM (inconclusive)
- EC50 [15]: 7.47 µM (inconclusive)

SMILES: Cc1cccc(N2CCN(C(=O)COc3ccc4ccc(=O)oc4c3)CC2)c1C
- IC50 (Fatty acid synthase [2]): 3.84 µM (active)
- IC50 (Fatty acid synthase [3]): 5.23 µM (active)

SMILES: CCN(CC)c1ccc(NC(=O)Cn2cc3c(n2)CCC(C)C3)c(C)c1 (stereo not given)
- IC50 (Leucine aminopeptidase): 6.41 µM (active)
- AC50 [16]: 48.8 µM (active)

SMILES: Cc1cc(C(=O)Nc2cccc3c2O[C@@H](CN(C)Cc2ccc(-c4ccccc4)cc2)[C@@H](C)CN([C@H](C)CO)C3=O)n(C)n1
- AC50 [1]: 5.16 µM (active)

SMILES: COc1ccc(CN(C)C[C@@H]2Oc3c(NC(=O)Nc4ccc(C(F)(F)F)cc4)cccc3C(=O)N([C@H](C)CO)C[C@@H]2C)cc1
- AC50 [1]: 1.42 µM (active)

SMILES: CN=C(S)N1N=C(c2ccccc2)CC1c1ccccc1Cl (stereo not given)
- EC50 [4]: > 160 µM (inactive)
- EC50 [5]: > 38 µM (not active)

SMILES: O=C(CNc1ccccc1F)N/N=C/C1CC=CCC1 (stereo not given)
- EC50 [4]: > 160 µM (inactive)
- EC50 [5]: > 38 µM (not active)

SMILES: C[C@H]1CN([C@@H](C)CO)C(=O)c2cc(NS(=O)(=O)c3ccc(Cl)cc3)ccc2O[C@H]1CN(C)Cc1ccc(C(=O)Nc2ccccc2N)cc1
- AC50 [1]: 1.96 µM (active)

SMILES: Cc1cccc(C2CC3(CC(C)(C)N=C(S)N3)Oc3cc(O)ccc32)c1 (stereo not given)
- EC50 [4]: > 150 µM (inactive)
- EC50 [5]: 2.44 µM (active)

SMILES: CCN(C(=O)COC(=O)c1cc([N+](=O)[O-])ccc1N1CCOCC1)C1CCCCC1
- IC50 (Fatty acid synthase [2]): 1.13 µM (active)
- IC50 (Fatty acid synthase [3]): 4.08 µM (active)

SMILES: COc1ccc(NC(=O)CSc2c(C)nn(-c3nnc(C)c(=O)[nH]3)c2C)cc1
- IC50 (Leucine aminopeptidase): 83.7 µM (active)

SMILES: O=C1NC(=O)N(c2ccc(F)cc2)C(=O)/C1=C/c1c[nH]c2ccccc12
- EC50 [7]: > 300 µM (inconclusive)
- EC50 [17]: 10.3 µM (active)

SMILES: Cc1ccc(NC(=O)CN2C(=O)CSc3ccc(S(=O)(=O)N4CCCCC4)cc32)cc1
- IC50 [18]: 4.3 µM (active)
- IC50 (Fatty acid synthase [2]): 14.9 µM (active)
- IC50 (Fatty acid synthase [3]): 9.65 µM (active)

SMILES: C[C@H]1CN([C@@H](C)CO)C(=O)Cc2cc(NC(=O)Nc3ccc(C(F)(F)F)cc3)ccc2O[C@H]1CN(C)Cc1ccc(C(=O)Nc2ccccc2N)cc1
- AC50 [1]: 2.13 µM (active)
